Data taken from patent EP0446604A2, “Pyridine and related aza heterocycle derivatives as cardiovascular agents” (AMERICAN CYANAMID COMPANY, priority 1990, dated 1991).
Counter-ions that a name gives are not always drawn.

How the values were obtained:
[1] = test system: Male mice of the Swiss Webster Strain; assay: Calcium chloride-induced arrhythmia in anesthetized mice (survival); format: in vivo; details: Mus musculus, iv, Dose = 10 mg/kg i.v.; calcium chloride 200 mg/kg i.v. bolus 5, 15 or 30 minutes after drug; observed 15 minutes; read-out: CaCl2 #Mice Surviving #Mice Tested (converted)
Excerpt: (§1) Intravenous administration of high doses of calcium or potassium chloride in animals produces cardiac arrhythmias, cardiac fibrillation and cardiac arrest. Any agent that can prevent these events is considered an antiarrhythmic/antifibrillatory agent. (Meth. and Find Exptl. Clin Pharmacol.2:223-252(1980); Pharmacol, Ther. 24:401-433 (1984); Experimental Cardiac and Antiarrhythmic Drugs, L. Szekeres and Gy. J. Dapp, Akademiai Kiado Preso, Budapest, 9-448 (1971).)
(§2) The method employed is as follows: Male mice of the Swiss Webster Strain (Charles River, Wilmington, MA) weighing 25-35 g are anesthetized with ethyl carbamate (urethan) (1.5g/kg body weight i.p.). A 25-gauge needle attached to PE-20 tubing is inserted into a caudal vein for drug administration. The lead II ECG is recorded by needle electrodes placed subcutaneously in the limbs. All data is collected on a Gould Brush recorder. Animals are observed 5 minutes before drug administration. A 5, 15, or 30 minute period following drug administration is allowed before the bolus injection of calcium chloride, 200 mg/kg i.v. or potassium chloride, 62.5 mg/kg i.v. Control mice receive 4 ml/kg of 0.9% sodium chloride i.v. Mice are observed an additional 15 minutes for arrhythmias, fibrillation, survival or death. Any compound at a dose of less than 20 mg/kg i.v. that protects 3 out of 6 mice from cardiac death in either the potassium or calcium chloride test, is considered active.

[2] = test system: Male mice of the Swiss Webster Strain; assay: Potassium chloride-induced arrhythmia in anesthetized mice (survival); format: in vivo; details: Mus musculus, iv, Dose = 10 mg/kg i.v.; potassium chloride 62.5 mg/kg i.v. bolus 5, 15 or 30 minutes after drug; observed 15 minutes; read-out: KCl #Mice Surviving #Mice Tested (converted)
Excerpt: as §1, §2

[3] = target: T1, thromboxane synthetase enzyme (Rattus norvegicus, UniProt P49430); assay: Inhibition of thromboxane (TXB2) formation in washed rat platelets, TXB2 radioimmunoassay; format: biochemical, Okamoto-Aoki spontaneously hypertensive rats (SHR); details: Concentration 1x10^-4M, platelet suspension incubated 10 minutes at 37 °C
T1 construct: from tissue; host or cells: washed blood platelets from Okamoto-Aoki spontaneously hypertensive rats (SHR)
T1 sequence (P49430 1-533): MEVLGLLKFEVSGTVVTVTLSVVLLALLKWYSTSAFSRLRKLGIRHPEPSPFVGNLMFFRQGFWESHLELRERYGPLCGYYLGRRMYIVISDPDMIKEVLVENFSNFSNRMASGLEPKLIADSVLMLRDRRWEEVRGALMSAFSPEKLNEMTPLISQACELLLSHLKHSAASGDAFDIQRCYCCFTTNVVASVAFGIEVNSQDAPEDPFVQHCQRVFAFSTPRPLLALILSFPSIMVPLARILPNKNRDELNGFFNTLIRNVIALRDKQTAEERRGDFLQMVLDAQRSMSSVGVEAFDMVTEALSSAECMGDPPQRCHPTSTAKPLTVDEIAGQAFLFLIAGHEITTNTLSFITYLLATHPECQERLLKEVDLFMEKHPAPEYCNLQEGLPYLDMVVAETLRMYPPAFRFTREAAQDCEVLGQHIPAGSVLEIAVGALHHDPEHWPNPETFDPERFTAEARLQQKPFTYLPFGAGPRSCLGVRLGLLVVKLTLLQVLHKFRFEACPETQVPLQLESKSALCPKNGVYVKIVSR
Description: Under urethan anesthesia, […] of arterial blood from Okamoto-Aoki spontaneously hypertensive rats (SHR) (Taconic Farms, Germantown, NY) between 19 and 24 weeks in age is collected in one ml of 3.2% sodium citrate in a polystyrene tube. The blood is diluted with 3 ml of cold saline and centrifuged at room temperature for 15 minutes at 460xg. The platelet rich plasma (PRP) is separated. The platelets are isolated by centrifuging the PRP for 10 minutes at 1060xg and are washed in 4 ml of cold oxygenated Krebs phosphate buffer, pH 7.4. The chilled platelets, recovered from centrifuging at 800xg for 10 minutes, are resuspended in oxygenated Krebs phosphate buffer and diluted to contain 4.5-6.0 x 10⁴ platelets/µ1. The inhibition of thromboxane (TX) formation is studied by determining the concentration of thromboxane B₂ (TXB₂), the stable hydrolysis product of TXA₂. Assay samples, prepared on ice, contain 200 µ1 platelet suspension, 50 µ1 saline, and 50 µ1 vehicle (saline) or drug under study. The samples are incubated for 10 minutes at 37 °C in a metabolic shaker. The reaction is terminated by immersing the tubes in an ice bath and adding 50 µl of 0.5M citric acid. The samples are centrifuged for 10 minutes in a refrigerated centrifuge and the supernatants thus obtained are decanted and stored at -20 °C. The TXB₂ content for each sample is determined by a direct radioimmunoassay (RIA) utilizing a TXB₂ specific RIA kit purchased from New England Nuclear, Boston, MA and expressed as pg TXB₂ formed per minute per sample, from which the percent inhibition of TXB₂ formation is calculated.

Row | inhibition at 100 µM [3] | Compound | responders at 10 mg/kg [1] | responders at 10 mg/kg [2]
1 | 85% | N#Cc1ccc(-c2ccncc2)nc1NCCCn1ccnc1 [Example 52, 2-[[3-(1H-Imidazol-1-yl)propyl]amino]-6-(4-pyridinyl)-3-pyridinecarbonitrile] |  | 
2 | 95% | c1ccc(-n2nc3ccc(NCCCn4ccnc4)nc3n2)cc1 [Example 56, N-[3-(1H-Imidazol-1-yl)propyl]-2-phenyl-2H-1,2,3-triazolo[4,5-b]pyridin-5-amine] |  | 
3 | 94% | O=[N+]([O-])c1ccc(Cl)nc1NCCCn1ccnc1 [Example 57, 6-Chloro-N-[3-(1H-imidazol-1-yl)propyl]-3-nitro-2-pyridinamine, monohydrochloride] |  | 
4 | 83% | CC(=O)N(CCCn1ccnc1)c1ccc([N+](=O)[O-])cn1 [Example 58, N-[3-(1H-Imidazol-1-yl)propyl]-N-(5-nitro-2-pyridinyl)acetamide] |  | 
5 | 100% | N#Cc1ccc(NCCCn2ccnc2)nc1-c1cccc(C(F)(F)F)c1 [Example 71, 6-[[3-(1H-Imidazol-1-yl)propyl]amino]-2-[3-(trifluoromethyl)phenyl]-3-pyridinecarbonitrile, (E)-2-butenedioate (1:1)] |  | 
6 | 90% | CC(=O)N(CCCn1ccnc1)c1cc(C)c2ccccc2n1 [Example 83, N-[3-(1H-Imidazol-1-yl)propyl]-N-(4-methyl-2-quinolinyl)acetamide,monoacetate] |  | 
7 | 98% | CC(CCNc1nc2ccccc2c2ccccc12)n1ccnc1 (stereo not drawn) [Example 89, N-[3-(1H-Imidazol-1-yl)butyl]-6-phenanthridinamine] |  | 
8 | 81% | Cc1ccc(C#N)c(NCc2cccnc2)n1 [Example 91, 6-Methyl-2-[(3-pyridinylmethyl)amino]-3-pyridinecarbonitrile] |  | 
9 | 86% | Cc1ccc(C#N)c(NCc2ccncc2)n1 [Example 93, 6-Methyl-2-[(4-pyridinylmethyl)amino]-3-pyridinecarbonitrile] |  | 
10 | 97% | Cc1cc(C)c2ccc(NCCCCc3cccnc3)nc2n1 [Example 109, 5,7-Dimethyl-N-[4-(3-pyridinyl)butyl]-1,8-naphthyridin-2-amine,(E)-2-butenedioate (1:2)] |  | 
11 | 99% | c1ccc(-c2cc(NCCCCc3cccnc3)nc3ccccc23)cc1 [Example 110, 4-Phenyl-N-[4-(3-pyridinyl)butyl]-2-quinolinamine] |  | 
12 | 85% | Cc1cccc2c(-c3ccccc3)cc(NCCCCc3cccnc3)nc12 [Example 111, 8-Methyl-4-phenyl-N-[4-(3-pyridinyl)butyl]-2-quinolinamine] |  | 
13 | 88% | O=[N+]([O-])c1cccnc1NCCCCc1ccncc1 [compound 100] |  | 

More lines, now with the values behind:

Row | Compound | inhibition at 100 µM [3] | responders at 10 mg/kg [1] | responders at 10 mg/kg [2]
14 | Cc1cccc(NCCCn2ccnc2)n1 [Example 10, N-[3-(1H-Imidazol-1-yl)propyl]-6-methyl-2-pyridinamine,(E)-2-butenedioate (2:3)] |  | 0% | 50%
15 | CC(=O)c1cc(C#N)c(NCCCn2ccnc2)nc1C [Example 12, 5-Acetyl-2-[[3-(1H-Imidazol-1-yl)propyl]amino]-6-methyl-3-pyridinecarbonitrile] | 96% | 16.7% | 66.7%
16 | N#Cc1ccc(-c2cccc(C(F)(F)F)c2)nc1NCCCn1ccnc1 [Example 18, 2-[[3-(1H-Imidazol-1-yl)propyl]amino]-6-[3-(trifluoromethyl)phenyl]-3-pyridinecarbonitrile] | 98% |  | 
17 | Cc1cc(C)c2ccc(NCCCn3ccnc3)nc2n1 [Example 24, N-[3-(1H-Imidazol-1-yl)propyl]-5,7-dimethyl-1,8-naphthyridin-2-amine, (E)-2-butenedioate (1:2)] | 93% | 16.7% | 100%
18 | c1cnc2nc(NCCCn3ccnc3)ccc2c1 [Example 27, N-[3-(1H-Imidazol-1-yl)propyl]-1,8-naphthyridin-2-amine,(E)-2-butenedioate (1:2)] | 90% |  | 
19 | Cc1cc(NCCCn2ccnc2)nc2nc(N)ccc12 [Example 34, N²-[3-(1H-Imidazol-1-yl)propyl]-4-methyl-1,8-naphthyridine-2,7-diamine] | 98% | 50% | 66.7%
20 | Cc1ccc2ccc(NCCCn3ccnc3)nc2n1 [Example 38, N-[3-(1H-Imidazol-1-yl)propyl]-7-methyl-1,8-naphthyridin-2-amine,(E)-2-butenedioate (1:2)] | 98% | 33.3% | 66.7%
21 | Cc1nccc2nc(NCCCn3ccnc3)ccc12 [Example 40, N-[3-(1H-Imidazol-1-yl)propyl]-5-methyl-1,6-naphthyridin-2-amine,(E)-2-butenedioate (2:3)] | 95% | 33.3% | 50%
22 | c1ccc(-c2cc(NCCCn3ccnc3)nc3ccccc23)cc1 [Example 44, N-[3-(1H-Imidazol-1-yl)propyl]-4-phenyl-2-quinolinamine] | 100% |  | 
23 | N#Cc1ccc(NCCCn2ccnc2)nc1 [Example 45, 6-[[3-(1H-Imidazol-1-yl)propyl]amino]-3-pyridinecarbonitrile] | 92% |  | 
24 | NC(=O)c1ccc(NCCCn2ccnc2)nc1 [Example 46, 6-[[3-(1H-Imidazol-1-yl)propyl]amino]-3-pyridinecarboxamide] | 80% |  | 
25 | Clc1cccc(NCCCn2ccnc2)n1 [Example 47, 6-Chloro-N-[3-(1H-imidazol-1-yl)propyl]-2-pyridinamine] | 91% |  | 
26 | Cc1cccc2c(-c3ccccc3)cc(NCCCn3ccnc3)nc12 [Example 51, N-[3-(1H-Imidazol-1-yl)propyl]-8-methyl-4-phenyl-2-quinolinamine] | 89% |  | 
27 | Cc1ccc(C#N)c(NCC(C)Cn2ccnc2)n1 (stereo not drawn) [Example 84, 2-[[3-(1H-Imidazol-1-yl)-2-methylpropyl]amino] 6-methyl-3-pyridinecarbonitrile, dihydrochloride] |  | 50% | 83.3%
28 | Cc1ccc(C#N)c(NCCC(C)n2ccnc2)n1 (stereo not drawn) [Example 85, 2-[[3-(1H-Imidazol-1-yl)butyl]amino]-6-methyl-3-pyridinecarbonitrile, dihydrochloride] |  | 33.3% | 83.3%
29 | Cc1cc(NCCc2cccnc2)nc2ccccc12 [Example 95, 4-Methyl-N-[2-(3-pyridinyl)ethyl]-2-quinolinamine,dihydrochloride] |  | 16.7% | 66.7%
30 | Cc1ccc(C#N)c(NCCc2ccncc2)n1 [Example 97, 6-Methyl-2-[[2-(4-pyridinyl)ethyl]amino]-3-pyridinecarbonitrile, dihydrochloride] |  | 0% | 50%
